# Key:
# [1] = target: T1, Peroxisome proliferator-activated receptor gamma (Homo sapiens, UniProt P37231); experiment: Ligand binding affinity was determined by displacement of a tritiated tracer by the unlabeled compound to a GST-PPAR fusion protein for Peroxisome proliferator activated receptor gamma containing residues
# T1 sequence (P37231 whole entry): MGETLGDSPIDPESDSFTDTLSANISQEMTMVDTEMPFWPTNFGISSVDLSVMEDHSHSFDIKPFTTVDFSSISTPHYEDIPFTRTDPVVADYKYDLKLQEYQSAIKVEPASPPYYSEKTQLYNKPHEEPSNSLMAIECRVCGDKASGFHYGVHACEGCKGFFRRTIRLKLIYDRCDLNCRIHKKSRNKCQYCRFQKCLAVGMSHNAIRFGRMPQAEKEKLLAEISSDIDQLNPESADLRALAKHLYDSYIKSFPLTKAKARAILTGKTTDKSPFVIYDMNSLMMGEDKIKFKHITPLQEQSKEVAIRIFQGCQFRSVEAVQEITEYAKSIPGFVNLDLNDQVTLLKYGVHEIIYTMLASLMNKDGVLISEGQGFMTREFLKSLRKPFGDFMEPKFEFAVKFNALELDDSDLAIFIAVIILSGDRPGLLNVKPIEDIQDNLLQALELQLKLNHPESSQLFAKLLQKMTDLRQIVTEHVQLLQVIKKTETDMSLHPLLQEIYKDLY
# [2] = target: T2, Peroxisome proliferator-activated receptor alpha (Homo sapiens, UniProt Q07869); experiment: Ligand binding affinity was determined by displacement of a tritiated tracer by the unlabeled compound to a GST-PPAR fusion protein for Peroxisome proliferator activated receptor alpha containing residues
# T2 sequence (Q07869 whole entry): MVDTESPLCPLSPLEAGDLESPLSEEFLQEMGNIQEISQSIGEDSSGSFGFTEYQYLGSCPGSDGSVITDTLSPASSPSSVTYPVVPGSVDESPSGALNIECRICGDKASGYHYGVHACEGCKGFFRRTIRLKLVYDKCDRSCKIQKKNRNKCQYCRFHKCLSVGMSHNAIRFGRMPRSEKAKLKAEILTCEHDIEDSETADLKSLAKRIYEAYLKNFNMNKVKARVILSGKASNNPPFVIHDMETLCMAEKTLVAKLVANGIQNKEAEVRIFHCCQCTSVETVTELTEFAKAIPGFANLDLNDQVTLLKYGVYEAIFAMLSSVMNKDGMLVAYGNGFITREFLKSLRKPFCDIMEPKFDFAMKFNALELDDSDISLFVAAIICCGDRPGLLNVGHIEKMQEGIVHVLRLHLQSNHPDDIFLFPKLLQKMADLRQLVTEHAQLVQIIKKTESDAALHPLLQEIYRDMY
# [3] = target: T1, Peroxisome proliferator-activated receptor gamma; experiment: Transactivation potency was measured by luciferase activity in Caco- 2/TC7 cells transiently co-transfected for the fusion-protein Gal4-PPAR gamma; type: functional, cell-based
# [4] = target: T2, Peroxisome proliferator-activated receptor alpha; experiment: Transactivation potency was measured by luciferase activity in Caco- 2/TC7 cells transiently co-transfected for the fusion-protein Gal4-PPAR alpha; type: functional, cell-based
SMILES,Ki [1] [nM],Ki [2] [nM],EC50 [3] [nM],EC50 [4] [nM]
O=C(Nc1ccc(Oc2ncccn2)cc1C(=O)O)c1ccc(Cl)cc1Cl,100,> 100000,1300,> 100000
O=C(Nc1ccc(Oc2ccc([N+](=O)[O-])cn2)cc1C(=O)O)c1ccc(Cl)cc1Cl,180,> 100000,400,> 100000
O=C(Nc1ccc(-c2ccsc2)cc1C(=O)O)c1ccc(Cl)cc1Cl,900,28000,700,12000
CCOc1cccc(-c2ccc(NC(=O)c3ccc(Cl)cc3Cl)c(C(=O)O)c2)c1,1200,> 100000,300,> 100000
Cc1ccc(NC(=O)c2ccc(Cl)cc2Cl)c(C(=O)O)c1,2200,30000,1600,9500
O=C(Nc1ccc(-c2ccco2)cc1C(=O)O)c1ccc(Cl)cc1Cl,500,22000,1000,10000
O=C(Nc1ccc(-c2cccc3cccnc23)cc1C(=O)O)c1ccc(Cl)cc1Cl,700,> 100000,300,> 100000
O=C(Nc1ccc(Oc2cncc(Cl)n2)cc1C(=O)O)c1ccc(Cl)cc1Cl,160,21000,450,> 100000
O=C(Nc1ccc(OCCc2cccs2)cc1C(=O)O)c1ccc(Cl)cc1Cl,1000,> 100000,700,> 100000
CSCCOc1ccc(NC(=O)c2ccc(Cl)cc2Cl)c(C(=O)O)c1,1600,19000,600,2500
CCOc1ccc(COc2ccc(NC(=O)c3ccc(Cl)cc3Cl)c(C(=O)O)c2)cc1,3600,> 100000,700,> 100000
O=C(Nc1ccc(OCc2cccs2)cc1C(=O)O)c1ccc(Cl)cc1Cl,400,25000,300,5000
O=C(O)c1cccc(-c2ccc(NC(=O)c3ccc(Cl)cc3Cl)c(C(=O)O)c2)c1,1400,67000,> 100000,> 100000
O=C(Nc1ccc(Oc2ncccc2[N+](=O)[O-])cc1C(=O)O)c1ccc(Cl)cc1Cl,170,> 100000,400,> 100000
O=C(Nc1ccc(OCCc2ccsc2)cc1C(=O)O)c1ccc(Cl)cc1Cl,600,20000,800,3800
O=C(Nc1ccc(OCCc2ccccn2)cc1C(=O)O)c1ccc(Cl)cc1Cl,1500,> 100000,3200,–
